Measurements taken from PubChem BioAssay (NCI).
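In this assay, cells in 96-well plates receive the compound at five concentrations for 48 hours. Endpoints are linearly interpolated between the surrounding concentrations. Here, GI50 denotes the concentration required for 50% inhibition of growth. TGI marks complete inhibition of growth.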

Key:
Experiment in all cases: NCI-60 cell line screen, 48 h
RXF 393 renal = tested on: RXF 393 renal
A549 NSCLC = tested on: A549 NSCLC
SNB-19 CNS = tested on: SNB-19 CNS
COLO 205 colon = tested on: COLO 205 colon
NCI-H460 lung = tested on: NCI-H460 lung
OVCAR-3 ovarian = tested on: OVCAR-3 ovarian
SK-MEL-2 melanoma = tested on: SK-MEL-2 melanoma
SF-295 CNS = tested on: SF-295 CNS
HOP-62 NSCLC = tested on: HOP-62 NSCLC
OVCAR-4 ovarian = tested on: OVCAR-4 ovarian

SMILES	GI50 (RXF 393 renal) [µM]	TGI (RXF 393 renal) [µM]	GI50 (A549 NSCLC) [µM]	TGI (A549 NSCLC) [µM]	GI50 (SNB-19 CNS) [µM]	TGI (SNB-19 CNS) [µM]	GI50 (COLO 205 colon) [µM]	TGI (COLO 205 colon) [µM]	GI50 (NCI-H460 lung) [µM]	TGI (NCI-H460 lung) [µM]	GI50 (OVCAR-3 ovarian) [µM]	TGI (OVCAR-3 ovarian) [µM]	GI50 (SK-MEL-2 melanoma) [µM]	TGI (SK-MEL-2 melanoma) [µM]	GI50 (SF-295 CNS) [µM]	TGI (SF-295 CNS) [µM]	GI50 (HOP-62 NSCLC) [µM]	TGI (HOP-62 NSCLC) [µM]	GI50 (OVCAR-4 ovarian) [µM]	TGI (OVCAR-4 ovarian) [µM]
Clc1ccc2nc(CI)c(CI)nc2c1	4.04	9.36	17.8	38.7	33.2	> 59.4	1.77	3.28	10.1	27.1	3.02	7.14	6.45	> 32.6	15.4	36.8	28.7	> 56.3	2.45	6.22
Cc1ccc(S(=O)(=O)OC(COC(=O)c2ccccc2)C(OS(=O)(=O)c2ccc(C)cc2)C(OS(=O)(=O)c2ccc(C)cc2)C(COC(=O)c2ccccc2)OS(=O)(=O)c2ccc(C)cc2)cc1 (stereo not given)		> 100		> 100		> 100		> 100		> 100		> 100		> 100		> 100		> 100		> 100
CC(C(=O)c1ccccc1)C1(O)C(=O)Nc2ccc(Cl)cc21 (stereo not given)		> 100		> 100		> 100		> 100		> 100		> 100		> 100		> 100		> 100		77.8
O=C(c1ccco1)c1c(C(F)(F)F)n([O-])c2cc(C(F)(F)F)ccc2[n+]1=O	0.43	0.929	0.445	1.02	1.47	2.99	0.475	2	0.537	1.8	1.43	3.13	2.62	6.73	1.29	2.83	0.484	1.08	1.35	3.94
COc1ccc(NC(=O)c2sc3nc(C)c(C(=O)/C=C/c4cccc(OC)c4)cc3c2N)cc1	0.916	1.84	1.18	9.22	1.72	6.73	2	10.9	1.07	2.45	0.939	2.68	1.54	18	3.28	> 50	1.29	3.47	4.01	17.8
C[C@]12CC[C@H]3[C@@H](CC4SC(N)=NC45C/C(=N/NC(N)=O)CC[C@]35C)[C@@H]1CCC2=O (stereo not given in full)	1.61	3.23	2.02	3.89	1.87	3.62	2.06	4.37	1.92	3.61	1.87	3.44	1.98	4.58	1.61	3.03	1.84	3.47	1.74	3.17
O=C(Nc1ccccc1-c1nn(CN2CCNCC2)c(=S)n(CN2CCNCC2)c1=O)C(F)(F)F		30.3		52.4		48.1		31		53.3		49.9		33.5		76.5		46.6		35.2
